From patent US11492335B2, “Aryl or heteroaryl triazolone derivatives or salts thereof, or pharmaceutical compositions comprising the same” (YUHAN CORPORATION, priority 2018, dated 2022)
Where a name gives a salt, the structure may show the parent alone. Read-outs that look alike come from different tables or passages of the source.

Legend:
Assay type in all cases: biochemical
recombinant human VAP-1 = biological target: T1, recombinant human VAP-1 (Homo sapiens, UniProt Q16853); assay: Activity on recombinant human VAP-1, Amplex Red HRP-coupled hydrogen peroxide assay, benzylamine substrate; details: recombinant human VAP-1, benzylamine substrate, read-out: Inhibitory Activity (IC50, nM) human VAP-1
T1 construct: purchased R&D systems
T1 sequence (Q16853 1-763): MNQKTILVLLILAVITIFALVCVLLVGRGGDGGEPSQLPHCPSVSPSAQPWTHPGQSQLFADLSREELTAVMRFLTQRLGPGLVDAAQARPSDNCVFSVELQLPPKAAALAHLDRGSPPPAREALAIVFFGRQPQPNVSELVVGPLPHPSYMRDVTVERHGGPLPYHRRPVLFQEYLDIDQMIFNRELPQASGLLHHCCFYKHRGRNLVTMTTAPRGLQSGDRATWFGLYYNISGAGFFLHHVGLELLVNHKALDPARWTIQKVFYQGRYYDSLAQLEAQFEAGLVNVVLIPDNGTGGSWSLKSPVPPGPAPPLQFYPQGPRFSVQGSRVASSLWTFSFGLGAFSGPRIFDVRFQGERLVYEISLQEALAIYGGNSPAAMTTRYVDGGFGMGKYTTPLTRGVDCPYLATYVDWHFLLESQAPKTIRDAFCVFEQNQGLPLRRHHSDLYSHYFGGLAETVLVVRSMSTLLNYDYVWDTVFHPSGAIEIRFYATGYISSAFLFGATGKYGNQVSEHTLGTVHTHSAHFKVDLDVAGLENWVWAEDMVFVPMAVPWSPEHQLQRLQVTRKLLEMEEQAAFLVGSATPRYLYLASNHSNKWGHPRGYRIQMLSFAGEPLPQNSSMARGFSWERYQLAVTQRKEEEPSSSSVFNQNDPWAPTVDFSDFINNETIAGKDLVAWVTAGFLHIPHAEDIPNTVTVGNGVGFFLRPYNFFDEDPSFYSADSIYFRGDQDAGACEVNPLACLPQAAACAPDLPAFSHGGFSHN
How it was run: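 8-point 1:3 dilutions, final DMSO <1%; 30 min enzyme preincubation, 37 °C, pH 7.4 phosphate. Start: 1 mM benzylamine + 200 uM Amplex Red + 1 U/mL HRP. Read ex544/em590 over 1-2 h; % rate decrease vs DMSO control, 4-parameter logistic IC50.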

[1] = biological target: T2, recombinant human MAO-A (monoamine oxidase-A) (Homo sapiens, UniProt P21397); assay: Activity on recombinant human MAO-A, Amplex Red method, 0.5 mM tyramine substrate; details: read-out: Inhibitory Activity (IC50, nM) MAO-A
T2 construct: purchased Sigma-Aldrich
T2 sequence (P21397 1-527): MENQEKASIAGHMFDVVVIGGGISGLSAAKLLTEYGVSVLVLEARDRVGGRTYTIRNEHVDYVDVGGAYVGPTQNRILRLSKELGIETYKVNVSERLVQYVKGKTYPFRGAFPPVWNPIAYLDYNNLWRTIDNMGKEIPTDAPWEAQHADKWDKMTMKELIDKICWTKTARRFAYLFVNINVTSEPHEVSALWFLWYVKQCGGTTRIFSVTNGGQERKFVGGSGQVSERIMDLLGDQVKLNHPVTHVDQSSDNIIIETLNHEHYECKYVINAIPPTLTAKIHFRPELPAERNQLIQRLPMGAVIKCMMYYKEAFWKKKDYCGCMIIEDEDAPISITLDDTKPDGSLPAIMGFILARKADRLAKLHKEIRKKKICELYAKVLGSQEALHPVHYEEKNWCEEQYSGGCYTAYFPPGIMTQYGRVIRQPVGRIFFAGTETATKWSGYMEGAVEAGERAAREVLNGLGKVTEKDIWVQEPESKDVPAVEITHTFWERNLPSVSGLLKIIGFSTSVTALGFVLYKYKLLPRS
How it was run: (§1)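 HRP-coupled Amplex Red H2O2 assay, 50 mM sodium phosphate pH 7.4; compounds (8-point 1:3 series, final DMSO <1%) preincubated with enzyme 30 min at 37° C, then 200 uM Amplex Red, 1 U/mL HRP and substrate (MAO-A 0.5 mM tyramine; MAO-B 1 mM benzylamine) added. Resorufin fluorescence (ex 544/em 590 nm) read over 1-2 h; IC50 from four-parameter logistic fit.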

[2] = biological target: T3, recombinant human MAO-B (monoamine oxidase-B) (Homo sapiens, UniProt P27338); assay: Activity on recombinant human MAO-B, Amplex Red method, 1 mM benzylamine substrate; details: read-out: Inhibitory Activity (IC50, nM) MAO-B
T3 construct: purchased Sigma-Aldrich
T3 sequence (P27338 1-520): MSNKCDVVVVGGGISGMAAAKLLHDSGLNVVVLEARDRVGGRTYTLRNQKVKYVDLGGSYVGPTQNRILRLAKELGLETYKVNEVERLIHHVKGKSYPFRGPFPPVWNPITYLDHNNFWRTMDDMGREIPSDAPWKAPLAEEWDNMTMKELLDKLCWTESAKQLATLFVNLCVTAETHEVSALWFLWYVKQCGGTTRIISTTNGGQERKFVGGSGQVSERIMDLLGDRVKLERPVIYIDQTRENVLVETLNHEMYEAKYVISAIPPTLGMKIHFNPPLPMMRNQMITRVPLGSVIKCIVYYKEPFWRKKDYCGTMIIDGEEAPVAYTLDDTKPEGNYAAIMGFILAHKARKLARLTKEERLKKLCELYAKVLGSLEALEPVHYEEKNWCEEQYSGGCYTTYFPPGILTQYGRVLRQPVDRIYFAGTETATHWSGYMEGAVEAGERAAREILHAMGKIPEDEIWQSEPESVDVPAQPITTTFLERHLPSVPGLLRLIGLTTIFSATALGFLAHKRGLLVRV
How it was run: as §1

[3] = biological target: T4, recombinant human DAO (diamine oxidase) (Homo sapiens, UniProt P19801); assay: Activity on recombinant human DAO, Amplex Red method, 1 mM putrescine substrate; details: recombinant human DAO, read-out: Inhibitory Activity (IC50, nM) DAO
T4 construct: purchased R&D systems
T4 sequence (P19801 20-751): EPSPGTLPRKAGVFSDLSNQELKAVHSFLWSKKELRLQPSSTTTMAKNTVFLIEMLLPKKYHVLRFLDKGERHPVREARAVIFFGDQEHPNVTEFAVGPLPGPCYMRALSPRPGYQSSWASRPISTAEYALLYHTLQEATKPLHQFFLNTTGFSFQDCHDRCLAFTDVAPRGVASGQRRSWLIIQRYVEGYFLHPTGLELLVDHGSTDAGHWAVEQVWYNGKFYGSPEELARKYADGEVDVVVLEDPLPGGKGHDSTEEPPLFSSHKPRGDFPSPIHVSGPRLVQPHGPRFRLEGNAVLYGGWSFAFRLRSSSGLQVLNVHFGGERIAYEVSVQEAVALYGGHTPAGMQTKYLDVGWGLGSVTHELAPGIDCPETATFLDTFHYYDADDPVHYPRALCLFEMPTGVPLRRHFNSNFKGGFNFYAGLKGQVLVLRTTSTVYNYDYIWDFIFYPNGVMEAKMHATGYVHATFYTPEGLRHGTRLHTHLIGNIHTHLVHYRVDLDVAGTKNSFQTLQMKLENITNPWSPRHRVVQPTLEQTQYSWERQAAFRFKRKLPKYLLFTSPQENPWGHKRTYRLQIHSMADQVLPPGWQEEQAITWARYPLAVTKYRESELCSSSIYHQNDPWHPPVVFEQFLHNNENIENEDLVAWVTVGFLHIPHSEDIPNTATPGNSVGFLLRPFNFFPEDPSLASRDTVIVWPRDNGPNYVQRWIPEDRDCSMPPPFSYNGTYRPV
How it was run: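 Inhibition of recombinant human DAO (diamine oxidase, R&D systems) was assessed with the Amplex Red Hydrogen Peroxide Assay Kit. Hydrogen peroxide produced from 1 mM putrescine was detected through an HRP-coupled reaction that converts Amplex Red into fluorescent resorufin, read at 544 nm excitation and 590 nm emission. IC50 values came from four-parameter logistic fits in GraphPad Prism.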

[4] = 1 mM putrescine, * = between 10 and 100 nM, ** = between 300 and 1000 nM

SMILES | IC50 (recombinant human VAP-1) | IC50 ([1]; 0.5 mM tyramine substrate) | IC50 ([2]; 1 mM benzylamine substrate) | IC50 ([3]; 1 mM putrescine substrate) | IC50 (recombinant human VAP-1; 30 min preincubation at 37° C.) | IC50 ([1]; 0.5 mM tyramine) | IC50 ([2]; 1 mM benzylamine) | IC50 [3, 4]
NC/C(=C\F)Cn1ncn(-c2cccc(-c3ccc(N4CCOCC4)nc3)c2)c1=O [Example 86, 2-[(2E)-2-(aminomethyl)-3-fluoroprop-2-en-1-yl]-4-{3-[6-(morpholin-4-yl)pyridin-3-yl]phenyl}-2,4-dihydro-3H-1,2,4-triazol-3-one hydrochloride] |  |  |  |  | 0.62 nM | > 100000 nM | 1230 nM | < 100 nM
Cc1cc(-c2ccc3c(c2)NC(=O)C3)cnc1-n1cnn(C/C(=C/F)CN)c1=O [Example 151, 6-(6-{1-[(2E)-2-(aminomethyl)-3-fluoroprop-2-en-1-yl]-5-oxo-1,5-dihydro-4H-1,2,4-triazol-4-yl}-5-methylpyridin-3-yl)-1,3-dihydro-2H-indol-2-one] | 0.52 nM | > 10000 nM | > 10000 nM | 98 nM |  |  |  | 
NC/C(=C\F)Cn1ncn(-c2cccc(/C=C/c3cnc4[nH]c(=O)oc4c3)n2)c1=O [Example 242, 6-[(E)-2-[6-[1-[(E)-2-(aminomethyl)-3-fluoro-allyl]-5-oxo-1,2,4-triazol-4-yl]-2-pyridyl]vinyl]-3H-oxazolo[4,5-b]pyridin-2-one hydrochloride] | 1.5 nM | > 100000 nM | > 10000 nM | 21 nM |  |  |  | 
Cc1c(-c2ccc(-c3ccon3)cc2)cccc1-n1cnn(C/C(=C/F)CN)c1=O [Example 108, 2-[(2E)-2-(aminomethyl)-3-fluoroprop-2-en-1-yl]-4-[2-methyl-4′-(1,2-oxazol-3-yl)biphenyl-3-yl]-2,4-dihydro-3H-1,2,4-triazol-3-one] |  |  |  |  | 2.2 nM | > 100000 nM | > 10000 nM | 3500 nM
NC/C(=C\F)Cn1ncn(-c2ccc(Br)cn2)c1=O [Example 30, 2-[(2E)-2-(aminomethyl)-3-fluoroprop-2-en-1-yl]-4-(5-bromopyridin-2-yl)-2,4-dihydro-3H-1,2,4-triazol-3-one hydrochloride] |  |  |  |  | 0.61 nM | 1900 nM | 1700 nM | 13 nM

Results, then the compound that gave them:

IC50 (recombinant human VAP-1) | IC50 ([1]; 0.5 mM tyramine substrate) | IC50 ([2]; 1 mM benzylamine substrate) | IC50 ([3]; 1 mM putrescine substrate) | IC50 (recombinant human VAP-1; 30 min preincubation at 37° C.) | IC50 ([1]; 0.5 mM tyramine) | IC50 ([2]; 1 mM benzylamine) | IC50 [3, 4] | SMILES
0.3 nM | > 100000 nM | > 10000 nM | 21 nM |  |  |  |  | NC/C(=C\F)Cn1ncn(-c2cccc(C#Cc3cnc4c(c3)NCCO4)n2)c1=O [Example 251, 2-[(E)-2-(aminomethyl)-3-fluoro-allyl]-4-[6-[2-(2,3-dihydro-1H-pyrido[2,3-b][1,4]oxazin-7-yl)ethynyl]-2-pyridyl]-1,2,4-triazol-3-one]
0.6 nM | > 100000 nM | 190 nM | 5 nM |  |  |  |  | Cc1cc(-c2cccc(-n3cnn(C/C(=C/F)CN)c3=O)n2)cnc1F [Example 190, 2-[(2E)-2-(aminomethyl)-3-fluoroprop-2-en-1-yl]-4-(6′-fluoro-5′-methyl-2,3′-bipyridin-6-yl)-2,4-dihydro-3H-1,2,4-triazol-3-one hydrochloride]
 |  |  |  | 0.53 nM | > 100000 nM | 394 nM | 370 nM | Cc1cc(-c2ccc(-c3ncon3)cc2)cnc1-n1cnn(C/C(=C/F)CN)c1=O [Example 139, 2-[(2E)-2-(aminomethyl)-3-fluoroprop-2-en-1-yl]-4-{3-methyl-5-[4-(1,2,4-oxadiazol-3-yl)phenyl]pyridin-2-yl}-2,4-dihydro-3H-1,2,4-triazol-3-one]
0.6 nM | > 100000 nM | > 10000 nM | 53 nM |  |  |  |  | NC/C(=C\F)Cn1ncn(-c2cccc(C#Cc3cnc4c(c3)OCCN4)n2)c1=O [Example 252, 2-[(E)-2-(aminomethyl)-3-fluoro-allyl]-4-[6-[2-(3,4-dihydro-2H-pyrido[3,2-b][1,4]oxazin-7-yl)ethynyl]-2-pyridyl]-1,2,4-triazol-3-one]
 |  |  |  | 0.96 nM | 5200 nM | 35 nM | 38 nM | NC/C(=C\F)Cn1ncn(-c2ccc(Br)c(F)c2)c1=O [Example 14, 2-[(2E)-2-(aminomethyl)-3-fluoroprop-2-en-1-yl]-4-(4-bromo-3-fluorophenyl)-2,4-dihydro-3H-1,2,4-triazol-3-one hydrochloride]
0.3 nM | 16000 nM | 4400 nM | 87 nM |  |  |  |  | Cc1cc(-c2ccc3c(c2)NC(=O)CO3)cnc1-n1cnn(C/C(=C/F)CN)c1=O [Example 155, 6-(6-{1-[(2E)-2-(aminomethyl)-3-fluoroprop-2-en-1-yl]-5-oxo-1,5-dihydro-4H-1,2,4-triazol-4-yl}-5-methylpyridin-3-yl)-2H-1,4-benzoxazin-3 (4H)-one hydrochloride]
0.7 nM | > 100000 nM | > 10000 nM | 74 nM |  |  |  |  | NC/C(=C\F)Cn1ncn(-c2cccc(C#Cc3ccc4c(c3)NCCO4)n2)c1=O [Example 250, 2-[(E)-2-(aminomethyl)-3-fluoro-allyl]-4-[6-[2-(3,4-dihydro-2H-1,4-benzoxazin-6-yl)ethynyl]-2-pyridyl]-1,2,4-triazol-3-one]
